# Biological target: L-type channel CaV1.2 (UniProt P15381)
# Sequence (P15381 whole entry, looked up): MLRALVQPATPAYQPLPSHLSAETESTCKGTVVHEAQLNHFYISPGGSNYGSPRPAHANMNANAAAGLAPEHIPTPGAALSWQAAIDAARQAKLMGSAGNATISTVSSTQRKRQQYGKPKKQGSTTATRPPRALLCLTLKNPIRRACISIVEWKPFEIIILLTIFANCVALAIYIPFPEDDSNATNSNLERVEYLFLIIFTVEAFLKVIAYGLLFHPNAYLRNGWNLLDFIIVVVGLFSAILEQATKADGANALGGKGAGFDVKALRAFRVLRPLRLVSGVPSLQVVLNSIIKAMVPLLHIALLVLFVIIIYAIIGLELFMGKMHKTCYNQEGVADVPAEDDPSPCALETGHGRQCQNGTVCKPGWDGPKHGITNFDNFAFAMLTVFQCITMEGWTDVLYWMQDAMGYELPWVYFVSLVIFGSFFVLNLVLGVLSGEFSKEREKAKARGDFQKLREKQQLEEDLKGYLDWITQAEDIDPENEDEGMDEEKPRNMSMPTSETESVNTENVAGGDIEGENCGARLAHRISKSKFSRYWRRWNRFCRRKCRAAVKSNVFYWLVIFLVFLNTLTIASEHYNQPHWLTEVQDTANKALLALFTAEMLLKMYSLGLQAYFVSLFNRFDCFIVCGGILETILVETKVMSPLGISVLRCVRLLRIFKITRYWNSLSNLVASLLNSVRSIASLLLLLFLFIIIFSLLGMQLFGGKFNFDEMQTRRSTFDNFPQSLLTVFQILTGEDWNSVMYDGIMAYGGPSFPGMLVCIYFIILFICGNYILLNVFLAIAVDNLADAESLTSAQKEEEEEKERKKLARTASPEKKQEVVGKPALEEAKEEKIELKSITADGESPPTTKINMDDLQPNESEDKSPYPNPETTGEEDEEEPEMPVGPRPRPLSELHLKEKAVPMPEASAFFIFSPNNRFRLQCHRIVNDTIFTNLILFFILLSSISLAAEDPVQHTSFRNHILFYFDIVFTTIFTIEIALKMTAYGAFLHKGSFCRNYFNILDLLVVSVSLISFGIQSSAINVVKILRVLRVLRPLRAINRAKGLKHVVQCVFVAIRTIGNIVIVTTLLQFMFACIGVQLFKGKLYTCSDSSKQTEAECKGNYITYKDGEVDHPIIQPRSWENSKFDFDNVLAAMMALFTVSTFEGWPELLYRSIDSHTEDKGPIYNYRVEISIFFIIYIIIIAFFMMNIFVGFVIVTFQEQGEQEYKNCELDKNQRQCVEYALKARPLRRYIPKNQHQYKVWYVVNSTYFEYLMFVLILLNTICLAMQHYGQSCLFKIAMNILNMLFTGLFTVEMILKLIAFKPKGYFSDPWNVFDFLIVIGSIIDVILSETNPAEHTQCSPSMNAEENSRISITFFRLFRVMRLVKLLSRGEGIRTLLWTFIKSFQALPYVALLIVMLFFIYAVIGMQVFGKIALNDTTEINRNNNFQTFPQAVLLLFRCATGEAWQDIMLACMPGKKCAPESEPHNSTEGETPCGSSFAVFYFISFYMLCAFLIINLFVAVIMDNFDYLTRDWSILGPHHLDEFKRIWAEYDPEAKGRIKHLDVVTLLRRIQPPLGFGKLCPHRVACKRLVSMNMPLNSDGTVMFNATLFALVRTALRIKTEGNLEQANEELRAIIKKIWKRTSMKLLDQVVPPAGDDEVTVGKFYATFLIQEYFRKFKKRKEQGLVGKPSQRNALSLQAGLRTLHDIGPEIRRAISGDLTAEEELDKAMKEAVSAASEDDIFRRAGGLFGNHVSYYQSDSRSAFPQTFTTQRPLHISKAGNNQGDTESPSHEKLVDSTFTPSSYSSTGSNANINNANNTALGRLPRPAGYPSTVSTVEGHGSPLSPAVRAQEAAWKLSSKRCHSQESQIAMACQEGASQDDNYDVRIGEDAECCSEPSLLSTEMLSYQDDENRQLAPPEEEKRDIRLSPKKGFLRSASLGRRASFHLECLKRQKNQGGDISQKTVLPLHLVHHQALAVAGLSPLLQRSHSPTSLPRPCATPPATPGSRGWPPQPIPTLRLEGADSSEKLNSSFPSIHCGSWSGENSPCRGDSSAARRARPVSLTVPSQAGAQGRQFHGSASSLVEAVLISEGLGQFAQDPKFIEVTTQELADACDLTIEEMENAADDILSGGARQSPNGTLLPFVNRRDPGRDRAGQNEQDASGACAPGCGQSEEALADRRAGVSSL
compound,measurement,value
"COc1ccc2cc1Oc1ccc(cc1)C[C@H]1c3cc(c(OC)cc3CCN1C)Oc1c(OC)c(OC)cc3c1[C@H](C2)N(C)CC3 [TETN, tetrandrine, reference compound]",L-Activity IC50,46.80 ± 10.84 µM

# Source: patent US20190275027A1 (priority 2018, published 2019)
